The values below come from US8263606B2 (Xenon Pharmaceuticals Inc., priority 2008, dated 2012).

One data set concerns the target CYP3A4 (Homo sapiens, UniProt P08684). In words: Cytochrome P450 (CYP450) Inhibition Assay, CYP3A4 (Vivid fluorescence, BOMCC substrate). The conditions noted are these: human, P450 Baculosomes (recombinant CYP3A4), probe BOMCC (Vivid substrate).
In a further data set the test system is sodium channel. In words: Guanidine influx assay (14C-guanidine radiotracer flux, in vitro). In kind it is cell-based, human or rat. As to conditions: guanidine influx assay using a known cell line that expresses a sodium channel. In short, it runs like this:
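Radiotracer read-out: intracellular 14C-guanidine counted after washing with guanidine-supplemented low-sodium buffer. Cells expressing human or rat channels get test agent plus aconitine activator and tracer, incubated at ambient temperature. Dilution series centred on 1 μM; IC50 by sigmoidal dose-response fit.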

Chain of CYP3A4 (P08684 whole entry): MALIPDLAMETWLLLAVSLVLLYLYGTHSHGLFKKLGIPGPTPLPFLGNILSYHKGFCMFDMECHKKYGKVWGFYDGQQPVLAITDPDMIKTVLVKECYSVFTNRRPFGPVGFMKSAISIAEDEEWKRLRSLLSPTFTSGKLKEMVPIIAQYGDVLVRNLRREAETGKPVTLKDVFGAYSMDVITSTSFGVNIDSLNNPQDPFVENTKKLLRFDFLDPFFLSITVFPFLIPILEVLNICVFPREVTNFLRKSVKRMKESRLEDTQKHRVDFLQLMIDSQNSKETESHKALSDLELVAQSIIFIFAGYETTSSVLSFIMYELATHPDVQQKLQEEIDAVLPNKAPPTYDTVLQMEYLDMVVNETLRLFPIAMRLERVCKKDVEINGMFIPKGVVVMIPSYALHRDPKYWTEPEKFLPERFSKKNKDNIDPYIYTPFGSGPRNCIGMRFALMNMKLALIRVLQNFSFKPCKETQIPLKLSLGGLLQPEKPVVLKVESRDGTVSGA

In the case of `Cc1nc2cc3c(cc2s1)C1(CO3)C(=O)Nc2ccccc21` (stereo not shown) [Example 1, 2-methylspiro[furo[2,3-f][1,3]benzothiazole-7,3′-indol]-2′(1′H)-one], the melting point was more than 250 °C. On CYP3A4, the inhibition at 10 µM is less than 50%. Moreover, the IC50 with sodium channel (activity level class) fell in the range of 1000 to 10000 nM.

Turning to `Cc1cccc(CN2C(=O)C3(COc4cc5c(cc43)OCCO5)c3ccccc32)n1` (stereo not shown) [Example 1.1, 1′-[(6-methylpyridin-2-yl)methyl]-2,3-dihydrospiro[furo[2,3-g][1,4]benzodioxine-8,3′-indol]-2′(1′H)-one], the melting point lay within 183 to 185 °C. The inhibition at 10 µM on CYP3A4 was more than 50%. Moreover, the IC50 in the data set on sodium channel (activity level class) fell in the range of 1 to 100 nM.

`Cc1cc(CN2C(=O)C3(COc4cc5c(cc43)OCO5)c3ccccc32)c(C)n1C(C)C` (stereo not shown) [Example 1.3, 1′-{[2,5-dimethyl-1-(1-methylethyl)-1H-pyrrol-3-yl]methyl}spiro[furo[2,3-f][1,3]benzodioxole-7,3′-indol]-2′(1′H)-one]: the melting point is 169 to 171 °C. Also, the inhibition at 10 µM on CYP3A4 is more than 50%. In addition, the IC50 in the data set on sodium channel (activity level class) lay within 1 to 100 nM.

Compound `O=C1N(Cc2ccc(Cl)s2)c2ccccc2C12COc1ccc(OCc3ccccc3)cc12` (stereo not shown) [Example 1.4, 5-(benzyloxy)-1′-[(5-chloro-2-thienyl)methyl]spiro[1-benzofuran-3,3′-indol]-2′(1′H)-one] gave a melting point of 132 to 135 °C. In addition, the inhibition at 10 µM on CYP3A4 was more than 50%. In the data set with sodium channel (activity level class), the IC50 was 1000 to 10000 nM.

On to `O=C1Nc2c(Br)cccc2C12COc1cc3c(cc12)OCO3` (stereo not shown) [Example 1.5, 7′-bromospiro[furo[2,3-f][1,3]benzodioxole-7,3′-indol]-2′(1′H)-one], for which the melting point is 240 °C (dec.). Further, the inhibition at 10 µM on CYP3A4 is more than 50%. Besides, in the data set on sodium channel (activity level class), the IC50 lay within 1 to 100 nM.

For `CC(C)c1cc(CN2C(=O)C3(COc4cc5c(cc43)OCO5)c3ccccc32)on1` (stereo not shown) [Example 1.6, 1′-[(3-isopropylisoxazol-5-yl)methyl]spiro[furo[2,3-f][1,3]benzodioxole-7,3′-indol]-2′(1′H)-one], the melting point was 132 to 136 °C. Further, at CYP3A4, the inhibition at 10 µM is more than 50%. Moreover, the IC50 with sodium channel (activity level class) lay in the range of 1 to 100 nM.

The compound `Cc1nc(CN2C(=O)C3(COc4cc5c(cc43)OCO5)c3ccccc32)c(C(F)(F)F)o1` (stereo not shown) [Example 1.9, 1′-{[2-methyl-5-(trifluoromethyl)-1,3-oxazol-4-yl]methyl}spiro[furo[2,3-f][1,3]benzodioxole-7,3′-indol]-2′(1′H)-one] displayed a melting point of 136 to 137 °C. The inhibition at 10 µM at CYP3A4 was more than 50%. In the data set with sodium channel (activity level class), the IC50 was in the range of 1 to 100 nM.

As to `O=C1N(Cc2ccc(Br)cn2)c2ccccc2C12COc1cc3c(cc12)OCCO3` (stereo not shown) [Example 1.14, 1′-[(5-bromopyridin-2-yl)methyl]-2,3-dihydrospiro[furo[2,3-g][1,4]benzodioxine-8,3′-indol]-2′(1′H)-one], the melting point lay within 201 to 202 °C. Besides, the inhibition at 10 µM on CYP3A4 is more than 50%. In addition, in the data set with sodium channel (activity level class), the IC50 lay in the range of 1 to 100 nM.

For `O=C1N(Cc2cc(-c3ccc(Cl)cc3)oc2C(F)(F)F)c2ccccc2C12COc1cc3c(cc12)OCO3` (stereo not shown) [Example 1.15, 1′-{[5-(4-chlorophenyl)-2-(trifluoromethyl)furan-3-yl]methyl}spiro[furo[2,3-f][1,3]benzodioxole-7,3′-indol]-2′(1′H)-one], the melting point is 114 to 116 °C. Also, on CYP3A4, the inhibition at 10 µM was less than 50%. Further, the 50% inhibitory concentration (IC50) in the data set with sodium channel (activity level class) fell in the range of 1000 to 10000 nM.

`Cn1nc(C(F)(F)F)c(CN2C(=O)C3(COc4cc5c(cc43)OCO5)c3ccccc32)c1Cl` (stereo not shown) [Example 1.16, 1′-{[5-chloro-1-methyl-3-(trifluoromethyl)-1H-pyrazol-4-yl]methyl}spiro[furo[2,3-f][1,3]benzodioxole-7,3′-indol]-2′(1′H)-one] had a melting point of 180 to 182 °C. The inhibition at 10 µM on CYP3A4 is more than 50%. For the same compound, in the data set with sodium channel (activity level class), the concentration for half-maximal inhibition (IC50) lay within 1 to 100 nM.

As for `Cc1cc2c(cc1C)C1(CO2)C(=O)N(C(c2ccccc2)c2ccccc2)c2ccccc21` (stereo not shown) [Example 2.3, 1′-(diphenylmethyl)-5,6-dimethylspiro[1-benzofuran-3,3′-indol]-2′(1′H)-one], the melting point lay in the range of 193 to 195 °C. Moreover, the inhibition at 10 µM on CYP3A4 was less than 50%. Also, the IC50 with sodium channel (activity level class) lay within 1000 to 10000 nM.

`COc1ccc(CN2C(=O)C3(COc4cc5onc(C)c5cc43)c3ccccc32)cc1` (stereo not shown) [Example 2.6, 1′-(4-methoxybenzyl)-3-methylspiro[furo[3,2-f][1,2]benzisoxazole-5,3′-indol]-2′(1′H)-one]: the melting point fell in the range of 138 to 139 °C. Also, the inhibition at 10 µM on CYP3A4 is more than 50%. Moreover, the IC50 with sodium channel (activity level class) lay in the range of 1 to 100 nM.

In turn, `O=C1N(C(c2ccccc2)c2ccccc2)c2ccccc2C12COc1ccc(F)cc12` (stereo not shown) [Example 2.9, 1′-(diphenylmethyl)-5-fluorospiro[1-benzofuran-3,3′-indol]-2′(1′H)-one] had a melting point of 182 to 184 °C. In addition, the inhibition at 10 µM on CYP3A4 was less than 50%. Moreover, in the data set with sodium channel (activity level class), the IC50 was 1000 to 10000 nM.

`O=C1N(C(c2ccccc2)c2ccccc2)c2ccccc2C12COc1cc3c(cc12)OCCO3` (stereo not shown) [Example 2.11, 1′-(diphenylmethyl)-2,3-dihydrospiro[furo[2,3-g][1,4]benzodioxine-8,3′-indol]-2′(1′H)-one] gave a melting point of 183 to 185 °C. The inhibition at 10 µM on CYP3A4 was less than 50%. In addition, the IC50 with sodium channel (activity level class) is 1000 to 10000 nM.

Compound `Cc1nc2cc3c(cc2o1)C1(CO3)C(=O)N(C(c2ccccc2)c2ccccc2)c2ccccc21` (stereo not shown) [Example 2.14, 1′-(diphenylmethyl)-2-methylspiro[furo[2,3-f][1,3]benzoxazole-7,3′-indol]-2′(1′H)-one] gave a melting point of 240 to 242 °C. For the same compound, the inhibition at 10 µM on CYP3A4 is less than 50%. The IC50 with sodium channel (activity level class) is not below 10000 nM.

`O=C1N(C(c2ccccc2)c2ccccc2)c2cccc(F)c2C12COc1cc3c(cc12)OCCO3` (stereo not shown) [Example 2.44, 1′-(diphenylmethyl)-4′-fluoro-2,3-dihydrospiro[furo[2,3-g][1,4]benzodioxine-8,3′-indol]-2′(1′H)-one] gave a melting point of 196 to 198 °C. The IC50 in the data set with sodium channel (activity level class) fell in the range of 100 to 1000 nM.

`O=C1N(Cc2ccccn2)c2ccccc2C12COc1ccc3c(c12)OCCO3` (stereo not shown) [Example 4.127, 1-(pyridin-2-ylmethyl)-2,3-dihydrospiro[furo[3,2-f][1,4]benzodioxine-9,3′-indol]-2′(1′H)-one] returned a melting point of 132 to 134 °C. The IC50 with sodium channel (activity level class) was in the range of 1000 to 10000 nM.

Take `O=C(O)c1ccc(CN2C(=O)C3(COc4cc5c(cc43)OCCO5)c3ccccc32)o1` (stereo not shown) [Example 11.32, 5-[(2′-oxo-2,3-dihydrospiro[furo[2,3-g][1,4]benzodioxine-8,3′-indol]-1′(2′H)-yl)methyl]furan-2-carboxylic acid]: the melting point fell in the range of 192 to 195 °C. Besides, the IC50 with sodium channel was in the range of 1000 to 10000 nM.

Compound `Nc1cccc(CN2C(=O)C3(COc4cc5c(cc43)OCCO5)c3ccccc32)n1` (stereo not shown) [Example 34, 1′-[(6-aminopyridin-2-yl)methyl]-2,3-dihydrospiro[furo[2,3-g][1,4]benzodioxine-8,3′-indol]-2′(1′H)-one] gave a melting point of 240 to 241 °C. Also, the inhibition at 10 µM on CYP3A4 was more than 50%.

As for `O=C1N(C[C@H](O)CO)c2ccccc2C12COc1cc3c(cc12)OCCO3` (stereo partly drawn) [Example 40, 1′-[(2S)-2,3-dihydroxypropyl]-2,3-dihydrospiro[furo[2,3-g][1,4]benzodioxine-8,3′-indol]-2′(1′H)-one], the melting point fell in the range of 179 to 181 °C. The IC50 in the data set on sodium channel lay within 100 to 1000 nM.

What is called inhibition is the relative decrease from the control value, in per cent. As a reminder, the melting point is the temperature of the solid-liquid transition. Usually IC50 stands for the midpoint of a concentration-inhibition curve.
